The results in this text go back to US4159328A, “Tetrahydro-1,3,5-thiadiazin-4-one derivative” (Nihon Nohyaku Co., Ltd., priority 1977, dated 1979).

One data set relates to larvae of brown planthopper (Nilaparvata lugens Stahl). Briefly: Test Example 1: insecticidal activity against larvae of brown planthopper. The following applies: 120 h, third-instar larvae, 25° C., 5 days after treatment. It counts as in vivo. The gist of the method:
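Rice seedlings at 1.5-leaf stage were dipped for 30 s in a 400 ppm test composition, air-dried, and infested with third-instar N. lugens larvae. After holding at 25 °C, mortality was scored 5 or 7 days post-treatment from three replicates.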
For the compound `CCCCN1C(=O)N(c2cccc(Cl)c2)CSC1=NC(C)(C)C` [Compound 236], the mortality (as a rule, the share of the test organisms that died) at 400 ppm was 80%.
Compound `CCC(C)N1C(=O)N(c2ccccc2)CSC1=NC(C)(C)C` (stereo not shown) [Compound 152] showed a mortality at 400 ppm of 100%.
Consider `CCC(C)N=C1SCN(c2cccc(C)c2)C(=O)N1C(C)CC` (stereo not shown) [Compound 327], for which the mortality at 400 ppm is 100%.
Still for that read-out and setting: next, `CCN1C(=O)N(c2cccc(Cl)c2)CSC1=NC(C)(C)C` [Compound 216, 2-t-Butylimino-3-ethyl-5-(m-chlorophenyl)-tetrahydro-1,3,5-thiadiazin-4-one]: 100%; `CN=C1SCN(c2cccc(Cl)c2)C(=O)N1C` [Compound 213]: 100%.
Same read-out and setting: then `CCC(C)N=C1SCN(c2cccc(Cl)c2)C(=O)N1C(C)CC` (stereo not shown) [Compound 224], with 100%; and `CC(C)N1C(=O)N(c2cccc(Cl)c2)CSC1=NC(C)(C)CC(C)(C)C` [Compound 222], with 100%; and `C=CCN1C(=O)N(c2cccc(Cl)c2)CSC1=NC(C)C` [Compound 217, 2-Isopropylimino-3-allyl-5-(m-chlorophenyl)-tetrahydro-1,3,5-thiadiazin-4-one], with 100%.
Regarding `Cc1cccc(N2CSC(=NC(C)(C)C)N(C(C)C)C2=O)c1` [Compound 326], the mortality at 400 ppm is 100%.
The same measure, in the same setting: then `CCC(C)N=C1SCN(c2ccccc2)C(=O)N1C(C)CC` (stereo not shown) [Compound 151], with 100%; and `CCN1C(=O)N(c2ccccc2)CSC1=NC(C)(C)C` [Compound 131, 2-t-Butylimino-3-ethyl-5-phenyl-tetrahydro-1,3,5-thiadiazin-4-one], with 100%; and `CCN=C1SCN(c2cccc(C)c2)C(=O)N1CC` [Compound 324], with 100%.
On the same count and under the same terms, then `C=CCN1C(=O)N(c2cccc(Cl)c2)CSC1=NC(C)(C)C` [Compound 218], with 100%.

In another data set the test system is larvae of white-backed planthopper (Sogatella furcifera Horvath). Briefly: Test Example 2: insecticidal activity against larvae of white-backed planthopper. It counts as in vivo. The following applies: 168 h, 400 ppm, first-instar larvae, 25° C., seven days after treatment, read-out: Mortality. Put shortly:
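Rice seedlings at 1.5-leaf stage were dipped 30 s in 400 ppm test composition, air-dried, and infested with five first-instar larvae. Tubes were held at 25°C, and mortality was scored at 7 days from triplicate tests.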
As for `CCC(C)N1C(=O)N(c2ccccc2)CSC1=NC(C)(C)C` (stereo not shown) [Compound 152], the mortality at 400 ppm was 100%.
The same measure, in the same setting: next, `CCC(C)N=C1SCN(c2cccc(C)c2)C(=O)N1C(C)CC` (stereo not shown) [Compound 327]: 100%; `CCC(C)N=C1SCN(c2cccc(Cl)c2)C(=O)N1C(C)CC` (stereo not shown) [Compound 224]: 100%.
As to `Cc1cccc(N2CSC(=NC(C)(C)C)N(C(C)C)C2=O)c1` [Compound 326], the mortality at 400 ppm was found to be 100%.

Another data set concerns two-spotted spider mite (Tetranychus urticae Koch). Briefly: Test Example 3: activity to two-spotted spider mite. The data set is classed as in vivo. The following applies: 120 h, 1,000 ppm, 5 days after treatment. From the text: Activity to two-spotted spider mite (Tetranychus urticae Koch).
Testing method: Two-spotted spider mites were set free on the pot-planted soybean in a greenhouse. On the next day, a test composition of 1,000 ppm concentration was sprayed over the soybean by means of a spray gun. Two days or five days after the treatment, dead-and-survival was inspected to calculate the mortality.
The compound `CCC(C)N=C1SCN(c2cccc(C)c2)C(=O)N1C(C)CC` (stereo not shown) [Compound 327] displayed a mortality at 1000 ppm of 100%.
Still for that read-out and setting: next, `CCN1C(=O)N(c2cccc(Cl)c2)CSC1=NC(C)(C)C` [Compound 216, 2-t-Butylimino-3-ethyl-5-(m-chlorophenyl)-tetrahydro-1,3,5-thiadiazin-4-one]: 70%; `CN=C1SCN(c2cccc(Cl)c2)C(=O)N1C` [Compound 213]: 100%; `CCC(C)N=C1SCN(c2cccc(Cl)c2)C(=O)N1C(C)CC` (stereo not shown) [Compound 224]: 100%.
The compound `CC(C)N1C(=O)N(c2cccc(Cl)c2)CSC1=NC(C)(C)CC(C)(C)C` [Compound 222] showed a mortality at 1000 ppm of 80%.
`C=CCN1C(=O)N(c2cccc(Cl)c2)CSC1=NC(C)C` [Compound 217, 2-Isopropylimino-3-allyl-5-(m-chlorophenyl)-tetrahydro-1,3,5-thiadiazin-4-one] showed a mortality at 1000 ppm of 100%.
The same measure, in the same setting: then `C=CCN1C(=O)N(c2cccc(Cl)c2)CSC1=NC(C)(C)C` [Compound 218], with 100%.

For another data set, the system named is cirrus red mite (Panonychus citri McGregor). Kind of data set: Test Example 4: activity to citrus red mite (Rothamstead method). The data set is classed as in vivo. On the set-up: concentration or dose not given beside the values. The following applies: two days after treatment, 25° C.; 2880 min. The method, then:
Activity to cirrus red mite (Panonychus citri McGregor).
Testing method: The test was performed by Rothamstead method. A test composition was sprayed by means of a spray gun over grapefruit leaves infested with citrus red mites. After air-drying the grapefruit was left standing in a constant temperature cabinet at 25° C. Two days after the treatment, the number of survived mites was counted to calculate the mortality.
`CCN1C(=O)N(c2ccccc2)CSC1=NC(C)(C)C` [Compound 131, 2-t-Butylimino-3-ethyl-5-phenyl-tetrahydro-1,3,5-thiadiazin-4-one] showed a Mortality of 100%.
Still for that read-out and setting: then `C=CCN1C(=O)N(c2cccc(Cl)c2)CSC1=NC(C)(C)C` [Compound 218], with 100%.

Another data set concerns larvae of green rice leafhopper (Nephotettix cincticeps Uhler). Kind of data set: Test Example 5: activity against larvae of green rice leafhopper. The data set is classed as in vivo. The following applies: 168 h, 400 ppm, second-instar larvae, 25° C., seven days after treatment, read-out: Mortality. Put shortly:
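Rice seedlings at 1.5 leaf age dipped 30 seconds in 400 ppm test composition, air-dried, then infested with five second-instar larvae. Kept at 25° C; mortality scored seven days after treatment, three replicates.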
For the compound `CCC(C)N1C(=O)N(c2ccccc2)CSC1=NC(C)(C)C` (stereo not shown) [Compound 152], the mortality at 400 ppm was 100%.
`CCC(C)N=C1SCN(c2cccc(C)c2)C(=O)N1C(C)CC` (stereo not shown) [Compound 327]: the mortality at 400 ppm came to 100%.
For `CCC(C)N=C1SCN(c2cccc(Cl)c2)C(=O)N1C(C)CC` (stereo not shown) [Compound 224], the mortality at 400 ppm was determined as 100%.
Take `Cc1cccc(N2CSC(=NC(C)(C)C)N(C(C)C)C2=O)c1` [Compound 326]: the mortality at 400 ppm amounted to 100%.
Still for that read-out and setting: then `CCC(C)N=C1SCN(c2ccccc2)C(=O)N1C(C)CC` (stereo not shown) [Compound 151], with 100%; and `CCN1C(=O)N(c2ccccc2)CSC1=NC(C)(C)C` [Compound 131, 2-t-Butylimino-3-ethyl-5-phenyl-tetrahydro-1,3,5-thiadiazin-4-one], with 100%.

A further data set has as its system larvae of house mosquito (Culex pipiens pallens Coquillett). Briefly: Test Example 6: insecticidal activity to larvae of house mosquito. The data set is classed as in vivo. The following applies: 120 h. The gist of the method: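 Twenty first-instar Culex pipiens pallens larvae placed with feed in test composition diluted in deionized water to 10 ppm. Kept at 25 °C, and mortality counted five days after treatment.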
With `CCC(C)N1C(=O)N(c2ccccc2)CSC1=NC(C)(C)C` (stereo not shown) [Compound 152], the mortality at 10 ppm is 100%.
Compound `CCC(C)N=C1SCN(c2cccc(C)c2)C(=O)N1C(C)CC` (stereo not shown) [Compound 327] gave a mortality at 10 ppm of 90%.
In turn, `CN=C1SCN(c2cccc(Cl)c2)C(=O)N1C` [Compound 213] had a mortality at 10 ppm of 100%.
Same read-out and setting: then `CCC(C)N=C1SCN(c2cccc(Cl)c2)C(=O)N1C(C)CC` (stereo not shown) [Compound 224], with 100%.
For the compound `Cc1cccc(N2CSC(=NC(C)(C)C)N(C(C)C)C2=O)c1` [Compound 326], the mortality at 10 ppm is 100%.
Same read-out and setting: then `CCC(C)N=C1SCN(c2ccccc2)C(=O)N1C(C)CC` (stereo not shown) [Compound 151], with 100%.
The same measure, in the same setting: then `CCN1C(=O)N(c2ccccc2)CSC1=NC(C)(C)C` [Compound 131, 2-t-Butylimino-3-ethyl-5-phenyl-tetrahydro-1,3,5-thiadiazin-4-one], with 100%; and `C=CCN1C(=O)N(c2cccc(Cl)c2)CSC1=NC(C)(C)C` [Compound 218], with 100%.

A further data set has as its system adult rust-red-flour beetle (Tribolium castaneum Herbst). Briefly: Test Example 7: insecticidal activity to adult rust-red-flour beetle. It counts as in vivo. The following applies: 400 ppm, adults, 25° C., 24 hours, read-out: Mortality. The method, then: Insecticidal activity to adult rust-red-flour beetle (Tribolium castaneum Herbst).
Testing method: Into a 9-cm Petri dish covered on the bottom with a piece of filter paper, was introduced 7 ml of a test composition of 400 ppm concentration. Ten adult rust-red flour beetles were released in the Petri dish and left standing in a constant temperature cabinet at 25° C. After 24 hours, the dead-and-survival was inspected to calculate the mortality.
On to `CCN1C(=O)N(c2cccc(Cl)c2)CSC1=NC(C)(C)C` [Compound 216, 2-t-Butylimino-3-ethyl-5-(m-chlorophenyl)-tetrahydro-1,3,5-thiadiazin-4-one], for which the mortality at 400 ppm turned out to be 100%.
Still for that read-out and setting: next, `CN=C1SCN(c2cccc(Cl)c2)C(=O)N1C` [Compound 213]: 100%; `CCC(C)N=C1SCN(c2cccc(Cl)c2)C(=O)N1C(C)CC` (stereo not shown) [Compound 224]: 100%.
As for `CC(C)N1C(=O)N(c2cccc(Cl)c2)CSC1=NC(C)(C)CC(C)(C)C` [Compound 222], the mortality at 400 ppm is 100%.
Still for that read-out and setting: next, `C=CCN1C(=O)N(c2cccc(Cl)c2)CSC1=NC(C)C` [Compound 217, 2-Isopropylimino-3-allyl-5-(m-chlorophenyl)-tetrahydro-1,3,5-thiadiazin-4-one]: 100%; `C=CCN1C(=O)N(c2cccc(Cl)c2)CSC1=NC(C)(C)C` [Compound 218]: 100%.

A further data set relates to larvae of 28-spotted lady beetle (Epilachna vigintioctopunctana Fabricius). Briefly: Test Example 8: insecticidal activity against larvae of 28-spotted lady beetle. It counts as in vivo. The following applies: 120 h. Put shortly: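 Tomato leaflets dipped 30 s in 100 ppm test composition, air-dried, and placed in Petri dishes with seven second-instar larvae at 25° C. Mortality scored five days after treatment, two replicates.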
The compound `CCC(C)N1C(=O)N(c2ccccc2)CSC1=NC(C)(C)C` (stereo not shown) [Compound 152] registered a mortality at 100 ppm of 100%.
In the case of `CCC(C)N=C1SCN(c2cccc(C)c2)C(=O)N1C(C)CC` (stereo not shown) [Compound 327], the mortality at 100 ppm was 100%.
Still for that read-out and setting: then `Cc1cccc(N2CSC(=NC(C)(C)C)N(C(C)C)C2=O)c1` [Compound 326], with 100%; and `CCC(C)N=C1SCN(c2ccccc2)C(=O)N1C(C)CC` (stereo not shown) [Compound 151], with 100%; and `CCN1C(=O)N(c2ccccc2)CSC1=NC(C)(C)C` [Compound 131, 2-t-Butylimino-3-ethyl-5-phenyl-tetrahydro-1,3,5-thiadiazin-4-one], with 100%.

The subject of a further data set is larvae of bug. (Togo hemipterus Scott). Kind of data set: Test Example 9: insecticidal activity against larvae of bug. The following applies: 120 h, 10 ppm, first-instar larvae, 25° C., five days, read-out: Mortality. The data set is classed as in vivo. The method, then:
Insecticidal activity against larvae of bug. (Togo hemipterus Scott).
Test method: Into a glass tube (1.6 cm in internal diameter and 9 cm in length), was added 1 ml of a test composition in 10 ppm concentration just to moisten the absorbent cotton. Five rice seeds and five first-instar larvae were introduced into the glass tube and the tube end was covered with a piece of Japanese paper. The glass tube was kept in a constant temperature cabinet at 25° C. Five days after treatment, the dead-and-survival was inspected to calculate the mortality (3-replication test).
Regarding `CCC(C)N1C(=O)N(c2ccccc2)CSC1=NC(C)(C)C` (stereo not shown) [Compound 152], the mortality at 10 ppm is 100%.
Same read-out and setting: next, `CCN1C(=O)N(c2cccc(Cl)c2)CSC1=NC(C)(C)C` [Compound 216, 2-t-Butylimino-3-ethyl-5-(m-chlorophenyl)-tetrahydro-1,3,5-thiadiazin-4-one]: 100%; `CC(C)N1C(=O)N(c2cccc(Cl)c2)CSC1=NC(C)(C)CC(C)(C)C` [Compound 222]: 100%.
The same measure, in the same setting: then `C=CCN1C(=O)N(c2cccc(Cl)c2)CSC1=NC(C)C` [Compound 217, 2-Isopropylimino-3-allyl-5-(m-chlorophenyl)-tetrahydro-1,3,5-thiadiazin-4-one], with 100%.
Regarding `CCC(C)N=C1SCN(c2ccccc2)C(=O)N1C(C)CC` (stereo not shown) [Compound 151], the mortality at 10 ppm was 80%.
The same measure, in the same setting: then `CCN1C(=O)N(c2ccccc2)CSC1=NC(C)(C)C` [Compound 131, 2-t-Butylimino-3-ethyl-5-phenyl-tetrahydro-1,3,5-thiadiazin-4-one], with 100%.

A further data set deals with larvae of diamond-back moth (Plutilla xylostella Linn'e). Kind of data set: Test Example 10: insecticidal activity against larvae of diamond-back moth. It counts as in vivo. The following applies: 400 ppm, first-instar larvae, three days; 4320 min. The text has this:
Insecticidal activity against larvae of diamond-back moth (Plutilla xylostella Linn'e). Testing method: A test composition of 400 ppm concentration was sprayed over the pot-planted chinese cabbage in a greenhouse by means of a spray gun. After air-drying, the chinese cabbage was infested with 10 first-instar larvae of diamond-back moth and was left standing in the greenhouse. Three days after the treatment, the dead-and-survival was inspected to calculate the mortality (3-replication test).
Compound `CCCCN1C(=O)N(c2cccc(Cl)c2)CSC1=NC(C)(C)C` [Compound 236] had a Mortality of 100%.
On the same count and under the same terms, next, `CCC(C)N=C1SCN(c2cccc(C)c2)C(=O)N1C(C)CC` (stereo not shown) [Compound 327]: 100%; `Cc1cccc(N2CSC(=NC(C)(C)C)N(C(C)C)C2=O)c1` [Compound 326]: 100%.
On the same count and under the same terms, then `CCN=C1SCN(c2cccc(C)c2)C(=O)N1CC` [Compound 324], with 100%.
